Measurements published in patent publication US9513294B2, “Megastokes amino-triazolyl-BODIPY compounds and applications to live neuron staining and human serum albumin FA1 drug site probing” (National University of Singapore, priority 2012, dated 2016).
Values belong to the molecule of their own block, whether it stands above or below them.

Tests used:
[1] = Quantum yield measurements versus Acridine Yellow in EtOH; format: physicochemical; details: for φ (quantum yield): excitation 460 nm; for φ (%): quantum yield
Outline: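 Fluorescence quantum yield is relative to Acridine Yellow in EtOH (Φ 0.47), with excitation at 460 nm. Integrated emission at 510–700 nm was corrected for absorbance at the excitation wavelength and for solvent refractive index.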

[2] = Absorbance and fluorescence emission spectra (SpectraMax M2); format: physicochemical; details: for λmax Abs. (nm) / λmax Em. (nm): MKAC compound library
Outline: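 Absorbance and emission maxima measured on a SpectraMax M2 spectrophotometer, which also gave quantum yield data; analysis in GraphPrism.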

Structure (SMILES): COc1cc(OC)cc(-c2cn(-c3ccc4n3[B-](F)(F)[N+]3=C(N5CCCCC5)C=CC3=C4c3ccc(NC(=O)CCl)cc3)nn2)c1 [BDCCA-14]
φ (quantum yield) ([1]; BDCCA library, Table 4): 0.8%
λmax Absorp. ([2]; BDCCA library, Table 4): 463 nm
λmax Emission ([2]; BDCCA library, Table 4): 589 nm

Structure (SMILES): CC(C)Cc1cn(-c2ccc3n2[B-](F)(F)[N+]2=C(N4CCCC4)C=CC2=C3c2ccc(N)cc2)nn1 [MK215-43]
φ (quantum yield) ([1]; MK library, Table 5): 0.33%
λmax Absorp. ([2]; MK library, Table 5): 471 nm
λmax Emission ([2]; MK library, Table 5): 571 nm

Structure (SMILES): O=C(CCl)Nc1ccc(C2=C3C=CC(N4CCCCC4)=[N+]3[B-](F)(F)n3c2ccc3-n2cc(C3=CCCCC3)nn2)cc1 [BDCCA-37]
φ (quantum yield) ([1]; BDCCA library, Table 4): 1.7%
λmax Absorp. ([2]; BDCCA library, Table 4): 465 nm
λmax Emission ([2]; BDCCA library, Table 4): 565 nm

Structure (SMILES): Cc1ccccc1CNC1=[N+]2C(=C(c3ccc(N)cc3)c3ccc(-n4cc(C5CC5)nn4)n3[B-]2(F)F)C=C1 [MK101-4]
φ (quantum yield) ([1]; MK library, Table 5): 0.70%
λmax Absorp. ([2]; MK library, Table 5): 474 nm
λmax Emission ([2]; MK library, Table 5): 566 nm

Structure (SMILES): CC(=O)Nc1ccc(C2=C3C=CC(N4CCc5ccccc5C4)=[N+]3[B-](F)(F)n3c2ccc3-n2cc(CCc3ccccc3)nn2)cc1 [MKAC66-19]
φ (%) ([1]; MKAC compound library): 1.76%
λmax Abs. (nm) ([2]; absorbance maximum): 470 nm
λmax Em. (nm) ([2]; fluorescence emission maximum): 580 nm

Structure (SMILES): CCCc1cn(-c2ccc3n2[B-](F)(F)[N+]2=C(NCc4ccccc4C)C=CC2=C3c2ccc(NC(C)=O)cc2)nn1 [MKAC101-48]
φ (%) ([1]; MKAC compound library): 17.25%
λmax Abs. (nm) ([2]; absorbance maximum): 465 nm
λmax Em. (nm) ([2]; fluorescence emission maximum): 562 nm

Structure (SMILES): CC(=O)Nc1ccc(C2=C3C=CC(N4CCCC4)=[N+]3[B-](F)(F)n3c2ccc3-n2cc(CN(C)Cc3ccccc3)nn2)cc1 [MKAC215-18]
φ (%) ([1]; MKAC compound library): 1.54%
λmax Abs. (nm) ([2]; absorbance maximum): 461 nm
λmax Em. (nm) ([2]; fluorescence emission maximum): 569 nm

Structure (SMILES): Cc1ccccc1CNC1=[N+]2C(=C(c3ccc(NC(=O)CCl)cc3)c3ccc(-n4cc(CC5CCCCC5)nn4)n3[B-]2(F)F)C=C1 [MKCA101-8]
φ (%) ([1]; MKCA compound library): 30.95%
λmax Absorp. (nm) ([2]; MKCA compound library, absorbance maximum): 464 nm
λmax Emission (nm) ([2]; MKCA compound library, fluorescence emission maximum): 562 nm

Structure (SMILES): CN(Cc1ccccc1)Cc1cn(-c2ccc3n2[B-](F)(F)[N+]2=C(N4CCc5ccccc5C4)C=CC2=C3c2ccc(N)cc2)nn1 [MK66-18]
φ (quantum yield) ([1]; MK library, Table 5): 0.14%
λmax Absorp. ([2]; MK library, Table 5): 478 nm
λmax Emission ([2]; MK library, Table 5): 587 nm

Structure (SMILES): CCCCCC(O)c1cn(-c2ccc3n2[B-](F)(F)[N+]2=C(N4CCc5ccccc5C4)C=CC2=C3c2ccc(NC(C)=O)cc2)nn1 (stereo not drawn) [MKAC66-69]
φ (%) ([1]; MKAC compound library): 1.88%
λmax Abs. (nm) ([2]; absorbance maximum): 469 nm
λmax Em. (nm) ([2]; fluorescence emission maximum): 579 nm

Other lines, results leading:

φ (quantum yield) ([1]; BDC library, Table 2): 0.18%
λmax Absorp. ([2]; BDC library, Table 2): 475 nm
λmax Emission ([2]; BDC library, Table 2): 593 nm
Structure (SMILES): CC(C)(C)c1cn(-c2ccc3n2[B-](F)(F)[N+]2=C(N4CCCCC4)C=CC2=C3c2ccc(N)cc2)nn1 [BDC-1]

φ (quantum yield) ([1]; BDC library, Table 2): 0.11%
λmax Absorp. ([2]; BDC library, Table 2): 474 nm
λmax Emission ([2]; BDC library, Table 2): 591 nm
Structure (SMILES): Nc1ccc(C2=C3C=CC(N4CCCCC4)=[N+]3[B-](F)(F)n3c2ccc3-n2cc(COc3ccccc3)nn2)cc1 [BDC-17]

φ (quantum yield) ([1]; BDC library, Table 2): 0.18%
λmax Absorp. ([2]; BDC library, Table 2): 471 nm
λmax Emission ([2]; BDC library, Table 2): 585 nm
Structure (SMILES): Nc1ccc(C2=C3C=CC(N4CCCCC4)=[N+]3[B-](F)(F)n3c2ccc3-n2cc(-c3ccc(F)c(F)c3)nn2)cc1 [BDC-16]

φ (quantum yield) ([1]; BDC library, Table 2): 0.10%
λmax Absorp. ([2]; BDC library, Table 2): 476 nm
λmax Emission ([2]; BDC library, Table 2): 582 nm
Structure (SMILES): CCCc1cn(-c2ccc3n2[B-](F)(F)[N+]2=C(N4CCCCC4)C=CC2=C3c2ccc(N)cc2)nn1 [BDC-48]

φ (quantum yield) ([1]; BDC library, Table 2): 0.28%
λmax Absorp. ([2]; BDC library, Table 2): 472 nm
λmax Emission ([2]; BDC library, Table 2): 579 nm
Structure (SMILES): COc1ccc2cc(-c3cn(-c4ccc5n4[B-](F)(F)[N+]4=C(N6CCCCC6)C=CC4=C5c4ccc(N)cc4)nn3)ccc2c1 [BDC-22]

φ (quantum yield) ([1]; BDC library, Table 2): 0.09%
λmax Absorp. ([2]; BDC library, Table 2): 478 nm
λmax Emission ([2]; BDC library, Table 2): 595 nm
Structure (SMILES): Nc1ccc(C2=C3C=CC(N4CCCCC4)=[N+]3[B-](F)(F)n3c2ccc3-n2cc(C3(O)CCCC3)nn2)cc1 [BDC-67]

φ (quantum yield) ([1]; BDC library, Table 2): 0.13%
λmax Absorp. ([2]; BDC library, Table 2): 475 nm
λmax Emission ([2]; BDC library, Table 2): 577 nm
Structure (SMILES): CCCCCCCc1cn(-c2ccc3n2[B-](F)(F)[N+]2=C(N4CCCCC4)C=CC2=C3c2ccc(N)cc2)nn1 [BDC-50]
